Experiment: Phase 1 pharmacokinetic study of a single oral dose of 20 mg E4 monohydrate in female subjects with normal hepatic function and mild, moderate or severe hepatic impairment (plasma, LC-MS/MS, non-compartmental analysis)
Assay type: in vivo, human
Conditions: for AUC0-24 h, GM / AUC0-24 h, Mean / AUC0-24 h, Median / AUCinf, GM / AUCinf, Mean / AUCinf, Median / AUClast, GM / AUClast, Mean / AUClast, Median / Cmax, GM / Cmax, Mean / Cmax, Median / T1/2, GM / T1/2, Mean / T1/2, Median / Tmax, Median / λz, GM / λz, Mean / λz, Median: single oral dose 20 mg E4 monohydrate, plasma
Method: This was a Phase 1, multi-centre, open-label, PK, and safety study of a single oral dose of 20 mg E4 monohydrate in female subjects with normal hepatic function (Group 1), mild hepatic impairment (Group 2), moderate hepatic impairment (Group 3), and severe hepatic impairment (Group 4), as defined using the Child-Pugh classification at Screening.
The study consisted of an eligibility Screening period (within 28 days prior to study drug administration), an Assessment Period with in-house period and outpatient visits (including a single oral dose of 20 mg E4 on Day 1), and a follow up visit. All subjects were confined to the study site from Day-1 (the day before dosing) until Day 4 and returned to the site every day from Day 5 to Day 9. Alternatively, the subjects could stay for a prolonged in-house period in agreement with the Investigator. The follow-up visit occurred on Day 14 (+2 days).
All subjects arrived at the study site in the morning of Day-1 in a fasted state (no food for at least 8 h, water was allowed) to have the scheduled assessments performed in order to confirm eligibility as outlined in the inclusion and exclusion criteria (Section 2.3.1 and Section 2.3.2, respectively). In the morning of Day 1 following an overnight fast, the subjects received oral dosing of 20 mg E4 monohydrate and remained at the site. Study-related assessments were performed at time points indicated in the Schedule of Assessments in Table 2.
Serial blood sampling for PK assessments started on Day 1 and proceeded until Day 9 according to the Pharmacokinetic Sampling Schedule presented in Table 3.
Each enrolled subject was to receive a single oral dose of 20 mg of E4 (estetrol) as monohydrate as a film-coated tablet.
Study drug was administered to subjects in the morning after an overnight fast of at least 8 h.
Calculation of non-compartmental PK parameters were done using WinNonlin™ Professional, Version 6.3 or higher.
The primary PK parameters to be analyzed for E4 in plasma: • Cmax=maximum observed plasma concentration • AUCinf=area under the concentration-time curve (AUC) from time zero extrapolated to infinity
The analysis of E4 and the metabolites E4-3-glucuronide and E4-16-glucuronide in plasma samples were performed at the Bioanalytical Laboratory of the CRO using a validated liquid chromatography-mass spectrometry/mass spectrometry method.
Individual and mean plasma concentrations at each sampling time point for E4 are presented by listings and descriptive summary statistics including means, geometric means (GMs), medians, ranges, standard deviations (SD) and coefficients of variation (CV). Individual, mean and/or median concentrations per hepatic function group were plotted versus time on semilogarithmic scales.
PK parameters were calculated by non-compartmental analysis. PK parameters were analysed using descriptive statistics and are presented by hepatic function group.
Analysis of variance (ANOVA) were used to compare primary PK parameters of E4 (Cmax and AUCinf) between subjects with hepatic impairment and subjects with normal hepatic function in an exploratory approach, using the log-transformed value of each PK parameter as dependent variable, and the hepatic impairment group (normal, mild, moderate, and severe) as a fixed classification factor. Geometric least squares means were used to calculate the ratios of primary PK parameters for each hepatic impairment group to those in the control group, along with 90% confidence intervals (CIs).
Additionally, the impact of age and BMI on the effect of hepatic impairment were evaluated using an ANOVA model similar as the ANOVA model described above, but with the interaction between each factor and the hepatic impairment group included as an additional factor.
The relationship between log-transformed PK parameters (Cmax and AUCinf) and continuous parameters (albumin, total bilirubin, and prothrombin time) used for the Child-Pugh score was explored by a linear regression approach. […]

## CC12CCC3c4ccc(OC5OC(C(=O)O)C(O)C(O)C5O)cc4CCC3C1C(O)C(O)C2O (stereo not shown) [E4-3-glucuronide, estetrol-3-glucuronide]
Mild hepatic impairment
  AUC0-24 h, GM: 315.86 ng·h/mL
  AUC0-24 h, Mean: 322.40 ng·h/mL
  AUC0-24 h, Median: 302.66 ng·h/mL
  AUCinf, GM: 497.24 ng·h/mL
  AUCinf, Mean: 506.96 ng·h/mL
  AUCinf, Median: 483.73 ng·h/mL
  AUClast, GM: 473.28 ng·h/mL
  AUClast, Mean: 483.07 ng·h/mL
  AUClast, Median: 440.22 ng·h/mL
  Cmax, GM: 113.610 ng/mL
  Cmax, Mean: 118.113 ng/mL
  Cmax, Median: 114.000 ng/mL
  T1/2, GM: 23.130 h
  T1/2, Mean: 24.540 h
  T1/2, Median: 24.692 h
  Tmax, Median: 0.490 h
  λz, GM: 0.0300 h⁻¹
  λz, Mean: 0.0318 h⁻¹
  λz, Median: 0.0281 h⁻¹
Moderate hepatic impairment
  AUC0-24 h, GM: 269.04 ng·h/mL
  AUC0-24 h, Mean: 282.87 ng·h/mL
  AUC0-24 h, Median: 299.08 ng·h/mL
  AUCinf, GM: 363.25 ng·h/mL
  AUCinf, Mean: 388.13 ng·h/mL
  AUCinf, Median: 412.85 ng·h/mL
  AUClast, GM: 311.58 ng·h/mL
  AUClast, Mean: 336.84 ng·h/mL
  AUClast, Median: 325.82 ng·h/mL
  Cmax, GM: 111.990 ng/mL
  Cmax, Mean: 122.863 ng/mL
  Cmax, Median: 133.000 ng/mL
  T1/2, GM: 14.390 h
  T1/2, Mean: 17.084 h
  T1/2, Median: 14.153 h
  Tmax, Median: 1 h
  λz, GM: 0.0500 h⁻¹
  λz, Mean: 0.0560 h⁻¹
  λz, Median: 0.0502 h⁻¹
Normal hepatic function
  AUC0-24 h, GM: 279.86 ng·h/mL
  AUC0-24 h, Mean: 290.53 ng·h/mL
  AUC0-24 h, Median: 309.09 ng·h/mL
  AUCinf, GM: 458.11 ng·h/mL
  AUCinf, Mean: 485.88 ng·h/mL
  AUCinf, Median: 495.16 ng·h/mL
  AUClast, GM: 446.22 ng·h/mL
  AUClast, Mean: 474.51 ng·h/mL
  AUClast, Median: 485.66 ng·h/mL
  Cmax, GM: 68.240 ng/mL
  Cmax, Mean: 73.238 ng/mL
  Cmax, Median: 70.100 ng/mL
  T1/2, GM: 19.540 h
  T1/2, Mean: 20.112 h
  T1/2, Median: 18.583 h
  Tmax, Median: 0.500 h
  λz, GM: 0.0400 h⁻¹
  λz, Mean: 0.0364 h⁻¹
  λz, Median: 0.0373 h⁻¹
Severe hepatic impairment
  AUC0-24 h, GM: 299.07 ng·h/mL
  AUC0-24 h, Mean: 314.97 ng·h/mL
  AUC0-24 h, Median: 264.88 ng·h/mL
  AUCinf, GM: 332.77 ng·h/mL
  AUCinf, Mean: 367.42 ng·h/mL
  AUCinf, Median: 305.49 ng·h/mL
  AUClast, GM: 325.76 ng·h/mL
  AUClast, Mean: 360.81 ng·h/mL
  AUClast, Median: 296.24 ng·h/mL
  Cmax, GM: 93.970 ng/mL
  Cmax, Mean: 96.250 ng/mL
  Cmax, Median: 91.550 ng/mL
  T1/2, GM: 7.710 h
  T1/2, Mean: 8.652 h
  T1/2, Median: 6.277 h
  Tmax, Median: 0.510 h
  λz, GM: 0.0900 h⁻¹
  λz, Mean: 0.1005 h⁻¹
  λz, Median: 0.1104 h⁻¹
All groups
  time to primary peak of GM plasma concentrations: ≤ 1 h
Mild hepatic impairment
  Tmax was reached within: ≤ 2 h
  time post dose until which concentrations remained above LLOQ in at least half of the subjects: 96 h
Moderate hepatic impairment
  Tmax was reached within: ≤ 2 h
  time post dose until which concentrations remained above LLOQ in at least half of the subjects: 48 h
Normal hepatic function
  time post dose until which concentrations remained above LLOQ in at least half of the subjects: 96 h
Normal hepatic function (due to an outlier)
  Tmax was reached within: ~ 6 h
Severe hepatic impairment
  Tmax was reached within: ≤ 1 h
  time post dose until which concentrations remained above LLOQ in at least half of the subjects: 36 h
